Results from patent US20070129384A1 (priority 2003, published 2007).
Read-outs that look alike come from different tables or passages of the source.

Tested on: Pyricularia oryzae
Type: in vivo
Details: individual active compound, protective, rice leaves, evaluated 6 days after inoculation, untreated 89% infection

Row | SMILES | Efficacy in % of the untreated control (1 ppm in the spray liquor) | Efficacy in % of the untreated control (16 ppm in the spray liquor) | Efficacy in % of the untreated control (4 ppm in the spray liquor)
1 | CC1CCN(c2c(-c3c(F)cc(F)cc3F)c(Cl)nc3ncnn23)CC1 [I, 5-chloro-7-(4-methylpiperidin-1-yl)-6-(2,4,6-trifluorophenyl)-[1,2,4]tri-azolo[1,5-a]pyrimidine] | 10% | 32% | 
2 | COC(=O)Nc1nc2ccccc2[nH]1 [II, methyl (1 H-benzoimidazol-2-yl)carbamate] |  | 32% | 0%
